For test [1], the target named is T1, Dipeptidyl peptidase 4 (Homo sapiens, UniProt P27487). Briefly: Inhibition of human placental DPP4 at pH 8.
Test [2] concerns the target T1, Dipeptidyl peptidase 4. Description: Inhibition of human placental DPP4.
Test [3] addresses T1, Dipeptidyl peptidase 4. Briefly: Inhibition of human placental DPP4 at pH 2.

The IC50 is the concentration that gives 50% inhibition. As a reminder, the Ki is a measure of affinity in units of concentration, obtained from inhibition or displacement. A low value points to a stronger hold on the target.

SMILES strings stand for the structures.

T1 sequence (P27487 whole entry): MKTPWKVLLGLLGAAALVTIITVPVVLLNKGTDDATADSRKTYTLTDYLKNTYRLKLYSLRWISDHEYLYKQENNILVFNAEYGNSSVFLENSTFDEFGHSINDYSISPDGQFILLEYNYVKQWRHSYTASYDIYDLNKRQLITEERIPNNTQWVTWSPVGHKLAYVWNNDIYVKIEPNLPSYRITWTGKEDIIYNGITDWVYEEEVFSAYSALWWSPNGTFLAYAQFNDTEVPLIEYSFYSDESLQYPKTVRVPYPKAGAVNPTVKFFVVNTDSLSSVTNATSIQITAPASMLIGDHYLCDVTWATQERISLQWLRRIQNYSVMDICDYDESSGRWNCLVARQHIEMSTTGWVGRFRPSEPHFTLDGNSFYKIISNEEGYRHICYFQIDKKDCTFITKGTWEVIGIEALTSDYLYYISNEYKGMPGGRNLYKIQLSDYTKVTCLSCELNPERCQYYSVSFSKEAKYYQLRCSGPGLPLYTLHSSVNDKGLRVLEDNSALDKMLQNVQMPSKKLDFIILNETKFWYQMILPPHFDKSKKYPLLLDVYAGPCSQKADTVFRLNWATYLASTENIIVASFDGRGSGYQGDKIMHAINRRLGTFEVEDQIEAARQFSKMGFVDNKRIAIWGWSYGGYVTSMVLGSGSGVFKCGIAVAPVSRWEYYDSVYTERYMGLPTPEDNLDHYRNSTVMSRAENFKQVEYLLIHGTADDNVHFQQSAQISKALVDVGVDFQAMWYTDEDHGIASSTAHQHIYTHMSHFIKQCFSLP

For `C[C@@H](B(O)O)N1CC[C@H](N)C1=O`, the figures for the IC50 in test [1] and in test [3] were 460 nM and 480 nM, respectively. Moreover, affinity in test [2] was put at a Ki of 1100 nM.

For the compound `C[C@@H](B(O)O)N1CC[C@@H](N)C1=O`, the IC50 in test [1] came out at 4.2 nM; in test [3], 5.3 nM. The compound further gave a Ki in test [2] of 2.3 nM.

The record behind these values is ChEMBL document CHEMBL1139886, “Synthesis and characterization of constrained peptidomimetic dipeptidyl peptidase IV inhibitors: amino-lactam boroalanines” (J Med Chem, 2007).
